Here are results for one compound from patent US20240344241A1, “PROTEINACEOUS MOLECULES AND USES THEREFOR” (THE UNIVERSITY OF QUEENSLAND, priority 2021, published 2024).

Bridge positions count the residues as written; N and C are the ends. Peptide text beside a SMILES is read from it. Where only a bound is given, the exact number is not on record here.

By Ki is commonly meant a measure of affinity in units of concentration, obtained from inhibition or displacement.

The test system of experiment [1] is human whole blood, intrinsic pathway (INTEM). As to the kind of experiment: Rotational thromboelastometry INTEM in human whole blood. The procedure:
(§1) The anticoagulant activity of cyclic MCoFx7 was determined in human whole blood using two assays: activated clotting time (ACT) and rotational thromboelastometry (ROTEM). In ACT assays, the clotting time (y-axis) was increased in a dose-dependent manner from the control (124 s), reaching 223 s with 20 μM MCoFx7. […] Anticoagulant activity was verified by thromboelastometry (TEM) that was measured after activation of the intrinsic pathway (INTEM) (refer to FIG. 16). […] By comparison, a single concentration of cyclic [A25P]MCoFx7 (10 μM) produced a clotting time of 500 s, similar to cyclic MCoFx7 at 10 μM (469 s).
(§2) Activated clotting time (ACT) was measured in fresh whole blood using celite tubes with the Hemochron 401 coagulation analyzer (Soma Technology, Bloomfield, CT, USA). Whole blood clot formation was recorded by ROTEM® Thromboelastometry (Haemoview Diagnostics, Brisbane, Australia) using INTEM (contact factor-initiated coagulation) and HEPTEM (contact factor-initiated coagulation with heparinase) activating reagents according to the manufacturer's instructions.

In a further experiment the test system is human whole blood. Description: Activated clotting time (ACT) in human whole blood. The procedure:
as §1, §2

The test system of experiment [2] is human blood. As to the kind of experiment: INTEM assay of blood samples from the ex vivo ECMO model. The conditions noted are these: ECMO circuit, single dose 20 μM. The procedure: (§3) The duration of effect for each treatment was also monitored by taking blood samples from the circuit over time and performing clotting assays (refer to FIG. 18). In ACT assays, a clotting time of more than 200 s was maintained for cyclic MCoFx7 over the course of the experiment (>300 s from 0.5 h-6 h).
(§4) Ex vivo ECMO circuits (Permanent Life Support [PLS] System, Maquet C P, Rastatt, Germany) consisted of a Quadrox D Oxygenator and ROTAFLOW centrifugal pump, both incorporated into a tubing set, with a tip-to-tip BIOLINE (albumin and heparin) coating. Initially, the PLS system was primed with Plasma-Lyte 148 and heated to 37.8° C. […] Inlet and outlet pressures between the membrane oxygenator were monitored using a silicone-based pressure transducer (Omega Engineering, Norwalk, CT, USA) and were recorded as the delta oxygenator pressure (P). […]
as §2

In another experiment the target is T1, Human β-FXIIa (Homo sapiens, UniProt P00748).
T1 construct: Human β-FXIIa was obtained from Molecular Innovations, together with human FXa, human FXIa, human α-thrombin, and human plasma kallikrein; purchased Molecular Innovations; host or cells: purified from human plasma
T1 sequence (P00748 373-615 limits assumed, other chains not shown): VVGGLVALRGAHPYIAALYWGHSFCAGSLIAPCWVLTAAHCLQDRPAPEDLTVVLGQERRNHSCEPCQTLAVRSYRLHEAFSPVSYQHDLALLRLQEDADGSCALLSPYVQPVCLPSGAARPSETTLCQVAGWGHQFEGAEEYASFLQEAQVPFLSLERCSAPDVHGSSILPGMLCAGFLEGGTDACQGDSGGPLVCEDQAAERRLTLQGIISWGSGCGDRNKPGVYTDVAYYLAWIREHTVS
As to the kind of experiment: FXIIa competitive inhibition assay, fluorescent substrate Boc-QGR-MCA. It is filed as biochemical. The conditions noted are these: 0.5 nM FXIIa, 50 μM Boc-QGR-MCA; read-out: Ki for FXIIa, fluorescent substrate. Put shortly: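 Human β-FXIIa (10 nM) preincubated to equilibrium with serially diluted inhibitors at room temperature in Tris pH 8.0 with NaCl, CaCl2 and Triton X-100. Activity followed with 100 μM Ac-QRFR-pNA (KM 162 μM) at 405 nm, or for later variants 0.5 nM enzyme with 50 μM Boc-QGR-MCA (KM 187 μM) by fluorescence. Ki from Morrison fits.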

For experiment [3], the system named is human blood. Description: ACT assay of blood samples from the ex vivo ECMO model. Conditions: ECMO circuit, single dose 20 μM. The procedure:
as §3, §4, §2

The subject of experiment [4] is human blood. As to the kind of experiment: HEPTEM assay of blood samples from the ex vivo ECMO model. Conditions: ECMO circuit, heparinase added. The procedure: as §3, §4, §2

With `CC[C@H](C)[C@@H]1NC(=O)CNC(=O)CNC(=O)[C@H](CC(=O)O)NC(=O)[C@H](CO)NC(=O)CNC(=O)[C@H](CO)NC(=O)CNC(=O)[C@@H]2CSSC[C@@H]3NC(=O)[C@H](CC(=O)O)NC(=O)[C@H](CO)NC(=O)[C@H](CC(=O)O)NC(=O)[C@H](CCCNC(=N)N)NC(=O)[C@H](CCCNC(=N)N)NC(=O)[C@@H]4CSSC[C@H](NC(=O)[C@H]([C@@H](C)CC)NC(=O)[C@H](CSSC[C@H](NC1=O)C(=O)N1CCC[C@H]1C(=O)N[C@@H](CCCNC(=N)N)C(=O)N[C@@H]([C@@H](C)CC)C(=O)NCC(=O)N[C@@H](CCCNC(=N)N)C(=O)N[C@@H](CC(C)C)C(=O)N4)NC(=O)[C@H](C)NC(=O)CNC(=O)[C@@H]1CCCN1C3=O)C(=O)N[C@@H](CCCNC(=N)N)C(=O)N[C@@H](C)C(=O)N[C@@H]([C@@H](C)O)C(=O)N[C@@H](CCCNC(=N)N)C(=O)N[C@@H](Cc1ccccc1)C(=O)N2` [Cyclic MCoFx7] (cyclo(ACICRATRFCGSGSDGGICPRIGRLCRRDSDCPG); disulfide 2-19, 4-26, 10-32), the results for the INTEM clotting time in experiment [1] (10 μM) and in experiment [1] (20 μM) were 469 s and 521 s, respectively. For the same compound, the “ACT clotting time versus therapeutic range (180-220 s)” value with human whole blood (10 μM or 20 μM) is “within the therapeutic range”. Besides, the ACT clotting time is given as 223 s in the experiment on human whole blood (20 μM, human whole blood) and greater than 300 s in the experiment on human blood [3] (from 0.5 h-6 h). Further, the “INTEM anticoagulant activity, duration” value in the experiment with human blood [2] was “anticoagulant activity was maintained for 6 h”. Further, at Human β-FXIIa, the Ki is 0.064 nM. For the same compound, the “ACT clotting time maintained over the course of the experiment” value with human blood [3] is recorded as “more than 200 s”. Moreover, the HEPTEM anticoagulant activity entry with human blood [4] is given as “independent of heparin”.
